Here are results for ten compounds from patent US20220064196A1, “EGFR Inhibitors, Compositions and Methods Thereof” (Betta Pharmaceuticals Co., Ltd., priority 2019, published 2022).

One series concerns A431 (WT). The series is described as follows: A431 cells proliferation assay (CellTiter Glo). Format: cell-based. To be noted: Homo sapiens, A-431; cell proliferation, 72 h. On the procedure:
Test 4 A431 Cells Proliferation Assay
DMEM and 10% FBS and 1% PS.
(§1) a) The medium was preheated in a 37° C. water bath in advance.
(§2) b) Remove the cryogenic vials from the liquid nitrogen tank, quickly put it into a 37° C. water bath, and completely melt it in 1 min.
(§3) c) Transfer the cell suspension to a 15 mL centrifuge tube containing 8 mL medium, centrifuge 1000 rpm, 5 min.
(§4) d) Discard the supernatant, resuspend the cells in 1 mL medium, and transfer to a 75 cm^2 flask containing 15 mL medium, culture the cells in an incubator at 37° C., 5% CO2.
(§5) b) Collect cell to a 15 mL centrifuged tube, centrifuge at 1000 rpm for 5 min. Discard the supernatant, count, and make the cell density at 1×10^4 cells/mL, then place it in a 37° C., 5% CO2 incubator.
a) The test compound (20 mM stock solution) was diluted to 2 mM with 100% DMSO as starting concentration then 3-fold serial diluted with “9+0” concentrations. in a 96-well dilution plate (Cat # P-05525, Labcyte);
b) The above compound solution was diluted 1:40 times with culture medium to prepare a 5 fold working solution;
(§6) a) Take cells in log phase growth, centrifuge at 1000 rpm for 5 min, then resuspend the cells with culture medium, then count cells;
b) Cells were seeded to 96-well cell culture plate with density at 5000 cells/well;
a) Compounds prepared at step 2 were added to cell plate with 40 μL per well, the final concentrations were 10000, 3333,1111.1, 370.4, 123.5, 41.2, 13.7, 4.6, 1.5 and 0 nM, and the final concentration of DMSO was 0.5%. The blank control well was a culture medium (0.5% DMSO);
(§7) b) The cells were incubated for an additional 72 h in the incubator.
a) Remove the 96-well cell culture plate and add 60 μl of CTG reagent (CellTiter Glo kit, promega, Cat # G7573).
(§8) b) Plate was shaked for 2 min and then let it cool for 10 min at room temperature.
c) The Luminescence signal value was read using a PerkinElmer reader.
Experimental Data Analysis
(§9) Data were analyzed using GraphPad Prism 6.0 software to obtain a fitted curve of compound activity.
(§10) Fit the Compound IC50 from non-linear regression equation:
Y=Bottom+(Top-Bottom)/(1+10((LogIC50-X)×HillSlope));
(§11) X: The log of the concentration of the compound; Y: Luminescence value.
The cells proliferation assay results are expressed with IC50, shown as Table 3.
(In general: In ATP-based viability assays light output follows the ATP content of the culture.)

Another series has as its target Ba/F3-L858R/T790M/C797S (Homo sapiens, UniProt P00533, T790M/C797S/L858R, cells depend on it). As to the kind of experiment: Ba/F3-L858R/T790M/C797S cells proliferation assay (CellTiter Glo). It counts as cell-based. To be noted: cell proliferation, 72 h, read-out: Ba/F3-L858R/T790M/C797S IC50. On the procedure:
(§12) a) The medium was preheated in a 37°0 C. water bath in advance.
as §2, §3, §4, §1, §5
(§13) a) The test compound (20 mM stock solution) was diluted to 200uM with 100% DMSO as starting concentration then 3-fold serial diluted with “9+0” concentrations. in a 96-well dilution plate (Cat # P-05525, Labcyte);
(§14) b) The above compound solution was diluted 1:20 times with culture medium to prepare a 10 fold working solution;
as §6
(§15) b) Cells were seeded to 96-well cell culture plate with density at 2000 cells/well;
(§16) a) Compounds prepared at step 2 were added to cell plate with 15 μL per well, the final concentrations were 1000,333, 111.1, 37,12.3, 4.1, 1.4, 0.5, 0.2 and 0 nM, and the final concentration of DMSO was 0.5%. The blank control well was a culture medium (0.5% DMSO);
as §7
(§17) a) Remove the 96-well cell culture plate and add 50 μl of CTG reagent (CellTiter Glo kit, promega, Cat # G7573).
as §8
(§18) c) The Luminescence signal value was read using a PerkinElmer reader. Experimental data analysis
as §9, §10
(§19) Y=Bottom+(Top-Bottom)/(1+10((LogIC50-X)×Hill Slope));
as §11
(§20) The cells proliferation assay results are expressed with IC50, shown as Table 2.

The next series has as its target EGFR L858R/T790M/C797S (Homo sapiens, UniProt P00533, C797S/L858R/T790M). As to the kind of experiment: Kinase assay (mobility shift), EGFR L858R/T790M/C797S. Format: biochemical. To be noted: numeric values. On the procedure: [Worded in the source for another variant; this variant is reported under the same test.] Test 1 Kinase Assay for EGFR Del19/T790M/C797S and EGFR Wildtype
Enzyme reaction protocol are as follows:
1. Preparing 1* Kinase buffer as followed.
2. Preparing Compound Concentration Gradient: Compounds were tested at a concentration of 300 nM, diluted to 100-fold final concentration in 100% DMSO solution in 96-well plates, and compounds were diluted 3 times with Precision, 10 concentrations. Each concentration of the compound was then further diluted to a 5-fold final concentration of the intermediate dilution solution using 1* Kinase buffer.
3.5 μL of each of the prepared intermediate dilution compounds was separately added to the compound wells of the 384-well plate, and each concentration was tested for duplicate wells; 5 μL of 5% DMSO was added to the negative control wells and the positive control wells, respectively.
4. 2.5-fold final concentration of the kinase solution was prepared using 1*Kinase buffer.
5. Add 10 μL of 2.5-fold final concentration of kinase solution to the compound well and positive control well; add 10 μL of 1*Kinase buffer to the negative control well.
6. Centrifuge at 1000 rpm for 30 seconds, shake the reaction plate and incubate for 10 minutes at room temperature.
7. A mixed solution of 2.5 times the final concentration of ATP and Kinase substrate (5-FAM-EEPLYWSFPAKKK-CONH2) was prepared using 1*Kinase buffer.
8. 10 μL of a 2.5-fold final concentration of a mixed solution of ATP and a substrate was added to initiate the reaction.
9. Centrifuge the 384-well plate at 1000 rpm for 30 seconds, mix by shaking, and incubate at room temperature for the corresponding time.
10. Add 30 μL of the stop solution to stop the kinase reaction, centrifuge at 1000 rpm for 30 seconds, and mix by shaking.
11. Read the conversion rate with Caliper EZ Reader.
Convert conversion values to inhibition values:
Percent inhibition 32 (max-conversion)/(max-min)*100.
“max” stands for the mean value of the positive control well ratio; “min” stands for the mean value of the negative control well.
Fit the data in log(inhibitor) vs. response Variable slope of GraphPad Prism 5 to obtain IC50 values.
Equation used is: Y=Bottom+(Top-Bottom)/(1+(IC50/X)^HillSlope)

In the next series the target is Ba/F3-Del19/T790M/C797S (Homo sapiens, UniProt P00533, T790M/C797S, cells depend on it, form not given). As to the kind of experiment: Ba/F3-Del19/T790M/C797S cells proliferation assay (CellTiter Glo). To be noted: cell proliferation, 72 h, read-out: Ba/F3-Del19/T790M/C797S IC50. Format: cell-based. On the procedure: as §12, §2, §3, §4, §1, §5, §13, §14, §6, §15, §16, §7, §17, §8, §18, §9, §10, §19, §11, §20

Series [1] in a line: Pharmacokinetic assay, oral administration. It counts as in vivo. To be noted: rat, male SD rats, p.o. 5 mg/kg, plasma, formulation differs per row. On the procedure:
Test 5 Pharmacokinetic Assay
Male SD rats, oral administration (intragastric administration), 3 in each group. Animals administered by gavage were fasted overnight before the experiment, and the fasting time was from at least 12 hours before administration to 4 hours after administration. The blood was collected using the orbital vein. Time of blood collection by oral administration: 15 min, 30 min, 1 h, 2 h, 4 h, 7 h, 24 h. The blood collection volume was 300 uL, and after anticoagulation with 2.0% EDTA, the blood was centrifuged at 4000 rpm for 5 min, and the blood plasma was taken for about 100 uL, and placed in −20° C. for examination. The plasma sample was analyzed using liquid chromatography tandem mass spectrometry (LC-MS/MS). Plasma concentration-time data for individual animals were analyzed using WinNonlin (V4.1, Pharsight) software with a non-compartmental model and the pharmacokinetic parameters of the test compounds were calculated.

Structures are written as SMILES. pIC50: −log10 of the molar value. Counter-ions that a name gives are not always drawn. Like-named read-outs stand apart in the source and are kept apart here. Where only a bound is given, the exact number is not on record here.

Chain of Ba/F3-Del19/T790M/C797S (P00533 with tags, fused parts or gaps DEL746-750/T790M/C797S, form open): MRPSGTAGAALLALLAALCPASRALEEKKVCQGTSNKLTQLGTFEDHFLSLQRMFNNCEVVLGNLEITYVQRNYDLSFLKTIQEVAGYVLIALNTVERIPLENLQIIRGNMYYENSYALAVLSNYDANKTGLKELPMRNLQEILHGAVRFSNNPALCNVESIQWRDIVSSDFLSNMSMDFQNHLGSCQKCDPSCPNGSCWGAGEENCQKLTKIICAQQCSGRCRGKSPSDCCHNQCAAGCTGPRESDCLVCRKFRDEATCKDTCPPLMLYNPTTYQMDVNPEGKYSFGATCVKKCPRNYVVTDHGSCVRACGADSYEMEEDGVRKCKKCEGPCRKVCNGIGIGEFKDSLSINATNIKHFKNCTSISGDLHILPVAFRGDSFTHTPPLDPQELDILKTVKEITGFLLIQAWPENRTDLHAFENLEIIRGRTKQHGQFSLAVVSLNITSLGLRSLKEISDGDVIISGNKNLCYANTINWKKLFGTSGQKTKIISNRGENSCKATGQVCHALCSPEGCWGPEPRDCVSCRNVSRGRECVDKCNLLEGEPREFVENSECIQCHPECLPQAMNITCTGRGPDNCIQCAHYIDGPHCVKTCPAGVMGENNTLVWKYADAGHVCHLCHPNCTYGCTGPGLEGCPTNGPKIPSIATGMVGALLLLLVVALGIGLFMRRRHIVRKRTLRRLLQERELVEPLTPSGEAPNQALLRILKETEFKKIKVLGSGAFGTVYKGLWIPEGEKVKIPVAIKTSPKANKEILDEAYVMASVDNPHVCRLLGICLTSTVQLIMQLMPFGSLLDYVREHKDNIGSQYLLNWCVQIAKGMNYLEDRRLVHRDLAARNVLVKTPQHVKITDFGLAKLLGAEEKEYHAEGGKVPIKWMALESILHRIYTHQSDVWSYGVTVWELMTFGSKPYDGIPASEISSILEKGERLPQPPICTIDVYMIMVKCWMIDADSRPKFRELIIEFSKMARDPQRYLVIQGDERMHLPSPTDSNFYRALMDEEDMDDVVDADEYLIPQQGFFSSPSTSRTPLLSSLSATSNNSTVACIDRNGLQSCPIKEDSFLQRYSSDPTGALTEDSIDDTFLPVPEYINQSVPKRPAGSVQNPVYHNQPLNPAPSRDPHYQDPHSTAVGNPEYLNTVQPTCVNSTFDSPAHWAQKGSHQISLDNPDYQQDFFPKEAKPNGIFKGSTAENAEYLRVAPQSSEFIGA
Chain of Ba/F3-L858R/T790M/C797S (P00533 whole entry T790M/C797S/L858R): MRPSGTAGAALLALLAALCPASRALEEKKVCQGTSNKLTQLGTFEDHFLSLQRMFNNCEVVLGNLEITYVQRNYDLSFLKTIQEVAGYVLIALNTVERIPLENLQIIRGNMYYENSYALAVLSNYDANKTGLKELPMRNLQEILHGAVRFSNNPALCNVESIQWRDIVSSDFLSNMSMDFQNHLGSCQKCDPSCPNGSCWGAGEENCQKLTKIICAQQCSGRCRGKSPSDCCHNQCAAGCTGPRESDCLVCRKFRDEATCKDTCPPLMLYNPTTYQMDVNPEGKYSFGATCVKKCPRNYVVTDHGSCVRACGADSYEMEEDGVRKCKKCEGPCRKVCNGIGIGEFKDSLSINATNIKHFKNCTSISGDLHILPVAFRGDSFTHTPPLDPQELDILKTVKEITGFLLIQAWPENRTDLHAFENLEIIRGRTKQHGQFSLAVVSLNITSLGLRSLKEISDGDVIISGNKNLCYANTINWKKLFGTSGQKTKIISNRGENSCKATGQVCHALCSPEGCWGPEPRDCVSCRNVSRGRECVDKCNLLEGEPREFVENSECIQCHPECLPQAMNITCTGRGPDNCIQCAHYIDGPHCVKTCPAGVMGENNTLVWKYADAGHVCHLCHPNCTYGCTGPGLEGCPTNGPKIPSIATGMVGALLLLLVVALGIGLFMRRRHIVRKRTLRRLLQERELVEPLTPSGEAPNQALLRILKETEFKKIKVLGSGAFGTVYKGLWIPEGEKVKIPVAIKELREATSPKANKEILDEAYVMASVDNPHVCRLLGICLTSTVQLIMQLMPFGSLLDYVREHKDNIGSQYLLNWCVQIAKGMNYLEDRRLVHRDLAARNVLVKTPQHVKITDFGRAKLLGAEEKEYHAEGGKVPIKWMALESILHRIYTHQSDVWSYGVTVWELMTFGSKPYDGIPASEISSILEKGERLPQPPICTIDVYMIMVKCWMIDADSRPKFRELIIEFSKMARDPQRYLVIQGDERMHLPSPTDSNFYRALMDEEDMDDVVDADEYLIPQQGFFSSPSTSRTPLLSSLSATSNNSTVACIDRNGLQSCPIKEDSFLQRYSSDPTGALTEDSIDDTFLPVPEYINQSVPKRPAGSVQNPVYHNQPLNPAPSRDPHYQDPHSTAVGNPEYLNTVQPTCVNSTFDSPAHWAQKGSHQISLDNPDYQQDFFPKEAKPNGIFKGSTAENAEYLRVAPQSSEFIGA
Chain of EGFR L858R/T790M/C797S (P00533 25-1210 T790M/C797S/L858R): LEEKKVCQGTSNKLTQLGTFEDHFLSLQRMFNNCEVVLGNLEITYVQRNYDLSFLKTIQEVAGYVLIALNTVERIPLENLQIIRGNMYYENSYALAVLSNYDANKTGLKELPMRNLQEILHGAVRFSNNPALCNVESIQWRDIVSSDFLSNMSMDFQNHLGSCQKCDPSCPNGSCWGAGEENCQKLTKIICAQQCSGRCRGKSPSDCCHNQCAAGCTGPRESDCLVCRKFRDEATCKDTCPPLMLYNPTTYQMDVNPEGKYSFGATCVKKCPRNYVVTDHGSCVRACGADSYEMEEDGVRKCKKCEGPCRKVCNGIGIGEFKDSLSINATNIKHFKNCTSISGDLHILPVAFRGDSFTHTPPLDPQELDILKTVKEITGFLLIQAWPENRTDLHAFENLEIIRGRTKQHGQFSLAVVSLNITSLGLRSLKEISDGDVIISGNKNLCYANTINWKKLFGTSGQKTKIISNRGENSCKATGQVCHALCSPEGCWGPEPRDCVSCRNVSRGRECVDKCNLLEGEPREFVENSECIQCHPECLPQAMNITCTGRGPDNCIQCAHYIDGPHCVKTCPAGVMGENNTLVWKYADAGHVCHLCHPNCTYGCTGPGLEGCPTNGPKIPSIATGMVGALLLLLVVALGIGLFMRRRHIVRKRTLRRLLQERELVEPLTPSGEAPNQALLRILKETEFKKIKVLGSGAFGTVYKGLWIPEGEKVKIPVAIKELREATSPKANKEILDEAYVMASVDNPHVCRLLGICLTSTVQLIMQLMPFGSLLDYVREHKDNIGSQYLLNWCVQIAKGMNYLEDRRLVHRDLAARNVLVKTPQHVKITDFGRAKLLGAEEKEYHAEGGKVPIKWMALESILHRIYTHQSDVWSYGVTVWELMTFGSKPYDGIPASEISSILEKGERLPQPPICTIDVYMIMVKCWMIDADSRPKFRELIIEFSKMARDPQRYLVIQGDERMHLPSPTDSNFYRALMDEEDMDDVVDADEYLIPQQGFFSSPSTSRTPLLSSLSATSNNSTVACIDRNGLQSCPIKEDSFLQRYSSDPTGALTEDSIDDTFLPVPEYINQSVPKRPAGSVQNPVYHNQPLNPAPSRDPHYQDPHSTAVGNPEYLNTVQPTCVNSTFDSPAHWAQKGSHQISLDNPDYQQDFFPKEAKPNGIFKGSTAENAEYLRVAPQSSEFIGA

Take `CN(C)C1CC2(CCN(c3ccc(Nc4ncc(Cl)c(Nc5ccccc5P(C)(C)=O)n4)cc3F)CC2)C1` [Example 30, (2-((5-chloro-2-((4-(2-(dimethylamino)-7-azaspiro[3.5]nonan-7-yl)-3-fluorophenyl)amino)pyrimidin-4-yl)amino)phenyl)dimethylphosphine oxide]: the values for the pIC50 with A431 (WT) and on EGFR L858R/T790M/C797S were 7.52 and 8.96, respectively. For the same compound, the results for the GI50 at Ba/F3-L858R/T790M/C797S (class symbols) and at Ba/F3-Del19/T790M/C797S (class symbols) were 10 to 50 nM and at most 10 nM, respectively.

In the case of `CN(C)C1CC2(CCN(c3ccc(Nc4nccc(Nc5ccccc5P(C)(C)=O)n4)cc3Cl)CC2)C1` [Example 7, (2-((2-((3-chloro-4-(2-(dimethylamino)-7-azaspiro[3.5]nonan-7-yl)phenyl)amino)pyrimidin-4-yl)amino)phenyl)dimethylphosphine oxide], the negative logarithm of the IC50 (pIC50) is 6.47 in the series on A431 (WT) and 8.11 on EGFR L858R/T790M/C797S. Further, the GI50 at Ba/F3-L858R/T790M/C797S (class symbols) and on Ba/F3-Del19/T790M/C797S (class symbols) was above 50 nM in each case.

`Cc1cc(Nc2ncc(Cl)c(Nc3ccccc3P(C)(C)=O)n2)ccc1N1CC2(CCC(N)CC2)C1` [Example 3, (2-((2-((4-(7-amino-2-azaspiro[3.5]nonan-2-yl)-3-methylphenyl)amino)-5-chloropyrimidin-4-yl)amino)phenyl)dimethylphosphine oxide]: the GI50 on Ba/F3-L858R/T790M/C797S (class symbols) and at Ba/F3-Del19/T790M/C797S (class symbols) was 10 to 50 nM in each case. Besides, at EGFR L858R/T790M/C797S, the pIC50 is 8.55.

With `CP(C)(=O)c1ccccc1Nc1nc(Nc2ccc(N3CCC4(CC3)CC(N)C4)cc2)ncc1Cl` [Example 16, (2-((2-((4-(2-amino-7-azaspiro[3.5]nonan-7-yl)phenyl)amino)-5-chloropyrimidin-4-yl)amino)phenyl)dimethylphosphine oxide hydrochloride], the GI50 turned out to be 6.9 nM on Ba/F3-L858R/T790M/C797S (numeric values) and 8 nM at Ba/F3-Del19/T790M/C797S (numeric values).

With `CP(C)(=O)c1ccccc1Nc1nc(Nc2ccc(N3CCC4(CC3)CC(N)C4)c(C(F)(F)F)c2)ncc1Cl` [Example 18, (2-((2-((4-(2-amino-7-azaspiro[3.5]nonan-7-yl)-3-(trifluoromethyl)phenyl)amino)-5-chloropyrimidin-4-yl)amino)phenyl)dimethylphosphine oxide], the GI50 on Ba/F3-L858R/T790M/C797S (class symbols) and at Ba/F3-Del19/T790M/C797S (class symbols) was 10 to 50 nM throughout. Moreover, the pIC50 on EGFR L858R/T790M/C797S is 7.80.

On to `CP(C)(=O)c1ccccc1Nc1ccnc(Nc2ccc(N3CCC4(CC3)CC(N)C4)c(Cl)c2)n1` [Example 9, (2-((2-((4-(2-amino-7-azaspiro[3.5]nonan-7-yl)-3-chlorophenyl)amino)pyrimidin-4-yl)amino)phenyl)dimethylphosphine oxide], for which the GI50 on Ba/F3-L858R/T790M/C797S (class symbols) and at Ba/F3-Del19/T790M/C797S (class symbols) was above 50 nM throughout. Further, the pIC50 at EGFR L858R/T790M/C797S was 7.96.

For the compound `CP(C)(=O)c1ccccc1Nc1nc(Nc2ccc(N3CC4(CCC(N)CC4)C3)c(Cl)c2)ncc1Cl` [Example 11, (2-((2-((4-(7-amino-2-azaspiro[3.5]nonan-2-yl)-3-chlorophenyl)amino)-5-chloropyrimidin-4-yl)amino)phenyl)dimethylphosphine oxide], the GI50 on Ba/F3-L858R/T790M/C797S (class symbols) was 10 to 50 nM; on Ba/F3-Del19/T790M/C797S (numeric values), 26.3 nM. For the same compound, the pIC50 at EGFR L858R/T790M/C797S was 8.59.

`CCN1CC2(C1)CN(c1ccc(Nc3ncc(Cl)c(Nc4ccccc4P(C)(C)=O)n3)cc1C)C2` [Comparative compound B, (2-((5-chloro-2-((4-(6-ethyl-2,6-diazaspiro[3.3]heptan-2-yl)-3-methylphenyl)amino)pyrimidin-4-yl)amino)phenyl)dimethylphosphine oxide, reference compound]: in series [1], the AUC(0-t) stood at 202 ng·h/mL, the Cmax came to 67.2 ng/mL, the Tmax stood at 2.75 h and the half-life is 4.09 h.

For `CNC1CC2(CCN(c3ccc(Nc4ncc(Cl)c(Nc5ccccc5P(C)(C)=O)n4)cc3Cl)CC2)C1` [Example 20, (2-((5-chloro-2-((3-chloro-4-(2-(methylamino)-7-azaspiro[3.5]nonan-7-yl)phenyl)amino)pyrimidin-4-yl)amino)phenyl)dimethylphosphine oxide], the GI50 at Ba/F3-L858R/T790M/C797S (class symbols) and on Ba/F3-Del19/T790M/C797S (class symbols) was 10 to 50 nM each time. The pIC50 on EGFR L858R/T790M/C797S was 8.64.

With `CN(C)C1CCC2(CC1)CN(c1ccc(Nc3ncc(Cl)c(Nc4ccccc4P(C)(C)=O)n3)cc1C1CC1)C2` [Example 5, (2-((5-chloro-2-((3-cyclopropyl-4-(7-(dimethylamino)-2-azaspiro[3.5]nonan-2-yl)phenyl)amino)pyrimidin-4-yl)amino)phenyl)dimethylphosphine oxide], the GI50 on Ba/F3-L858R/T790M/C797S (class symbols) and at Ba/F3-Del19/T790M/C797S (class symbols) was 10 to 50 nM throughout. On EGFR L858R/T790M/C797S, the pIC50 was 8.82.

Usually pIC50 stands for the negative decadic logarithm of the IC50, by convention in mol/L. Broadly, the AUC(0-t) is the area under the concentration-time curve up to a stated or last time point. As a reminder, the Cmax is the maximum level reached in the sampled fluid or tissue. What is called Tmax is the time at which the peak concentration occurs. By half-life is commonly meant the time needed for the level to fall by half in the phase considered.
